# Laboratory results published in patent US20150232876A1, “Use of a Receptor Kinase Having LysM Motifs in Order to Improve the Response of Plants to Lipochitooligosaccharides” (INSTITUT NATIONAL DE LA RECHERCHE AGRONOMIQUE, priority 2012, published 2015).
# Experiments:
# PsLYR3 = PsLYR3 (Lathyrus oleraceus, UniProt A0A9D5BD18); assay: Equilibrium, saturation and competitive binding on MtLYR3 ortholog expressed in N. benthamiana leaves; design: species or system Pisum sativum; settings: PsLYR3, 1 nM radioligand
# Text: (§1) In legumes, MtLYR3 orthologs have been identified in P. sativum, P. vulgaris and L. japonicus. In G. max orthologs exist in duplicate due to a duplication of the genome. The corresponding genes have been cloned and sequenced. A few differences in sequence compared with sequences in the databases were found which could be explained by the use of different varieties of plants or by sequencing errors in databases. The cloned genes were introduced into binary vectors, in C-terminal fusion with the fluorescent protein YFP, and introduced into Nicotiana benthamiana leaves using agroinfiltration by Agrobacterium tumefaciens, as described above in Example 3. The membrane fractions were isolated, their protein content was analyzed by electrophoresis under denaturing conditions, followed by immunodetection using anti-GFP antibody as described in Example 3, and their ability to interact with LCOs was determined by equilibrium binding, as described in Example 1, in the presence of 1 nM LCO-IV (S^35, C16:2Δ2, 9). The value of specific binding is determined by the value of difference between the total binding and the nonspecific binding obtained for incubation in the presence of an excess (2 μM) of unlabeled ligand. For comparison, the ability to interact of LjNFR5 and LjNFR1 receptors, identified in L. japonicus to play a role in nodulation by a genetic approach (MADSEN et al, Nature, 425, 637-40, 2003. RADUTOIU et al., Nature, 425, 585-92, 2003a) and respective orthologs of LYK3 and NFP in M. truncatula was determined under the same conditions.
# (§2) To further characterize the binding properties of MtLYR3 orthologs to LCOs, saturation and competitive binding experiments in the presence of different COs or LCOs were performed.
# GmLYR3-1 = GmLYR3-1 (Glycine max, UniProt A5YJW2); assay: as above; settings: GmLYR3-1, 1 nM radioligand
# Text: as §1, §2
# GmLYR3-11 = GmLYR3-11 (Glycine max, UniProt I1LHL9); assay: as above; settings: GmLYR3-11, 1 nM radioligand
# Text: as §1, §2
# LjLYS12 = LjLYS12 (Lotus japonicus, UniProt D3KTZ9); assay: as above; settings: LjLYS12, 1 nM radioligand
# Text: as §1, §2
# PvLYR3 = PvLYR3 (Phaseolus vulgaris, UniProt V7CFC1); assay: as above; settings: PvLYR3, 1 nM radioligand
# Text: as §1, §2
# LjNFR1 = assay: Equilibrium binding on receptor expressed in N. benthamiana leaves; design: species or system Lotus japonicus; settings: LjNFR1, 1 nM radioligand
# Text: as §1, with “For comparison, the ability to interact of LjNFR5 and LjNFR1 receptors, identified in L. japonicus to play a role in nodulation by a genetic approach (MADSEN et al, Nature, 425, 637-40, 2003. RADUTOIU et al., Nature, 425, 585-92, 2003a) and respective orthologs of LYK3 and NFP in M. truncatula was determined under the same conditions.” left out
# LjNFR5 = assay: as above; design: species or system Lotus japonicus; settings: LjNFR5, 1 nM radioligand
# Text: as §1, with “For comparison, the ability to interact of LjNFR5 and LjNFR1 receptors, identified in L. japonicus to play a role in nodulation by a genetic approach (MADSEN et al, Nature, 425, 637-40, 2003. RADUTOIU et al., Nature, 425, 585-92, 2003a) and respective orthologs of LYK3 and NFP in M. truncatula was determined under the same conditions.” left out
# PpLYR3 = PpLYR3 (Prunus persica, UniProt A0A251NBL6); assay: Equilibrium, saturation and competition binding on PpLYR3 expressed in N. benthamiana leaves
# Experimental: (§3) In non-legumes, PpLYR3, SILYR3 and AtLysM-RLK4 genes have been cloned, the corresponding proteins were expressed in N. benthamiana leaves, and their ability to bind to LCOs was determined by binding experiments at equilibrium, as described above for legumes LYR3 proteins.
# The interaction of PpLYR3 with the Nod LCO-IV (^35S, C16:2Δ2, 9) factor has been characterized in more detail by means of saturation and competition experiments. The results obtained are illustrated in FIG. 9. […] Similarly, PpLYR3 specifically recognizes the LCOs as interaction with COs (CO-IV and CO-VIII) is of low affinity (Ki>5 μM).
# SILYR3 = assay: Equilibrium binding on SILYR3 expressed in N. benthamiana leaves; design: species or system Solanum lycopersicum
# Experimental: as §3
# AtLysM-RLK4 = biological target: T1, AtLysM-RLK4 (Arabidopsis thaliana, UniProt O64825); assay: Equilibrium binding on AtLysM-RLK4 expressed in N. benthamiana leaves
# T1 construct: YFP (implied by anti-GFP immunopurification); expressed in transfected cells; host or cells: Nicotiana benthamiana leaves, membrane fraction
# T1 sequence (O64825 23-612): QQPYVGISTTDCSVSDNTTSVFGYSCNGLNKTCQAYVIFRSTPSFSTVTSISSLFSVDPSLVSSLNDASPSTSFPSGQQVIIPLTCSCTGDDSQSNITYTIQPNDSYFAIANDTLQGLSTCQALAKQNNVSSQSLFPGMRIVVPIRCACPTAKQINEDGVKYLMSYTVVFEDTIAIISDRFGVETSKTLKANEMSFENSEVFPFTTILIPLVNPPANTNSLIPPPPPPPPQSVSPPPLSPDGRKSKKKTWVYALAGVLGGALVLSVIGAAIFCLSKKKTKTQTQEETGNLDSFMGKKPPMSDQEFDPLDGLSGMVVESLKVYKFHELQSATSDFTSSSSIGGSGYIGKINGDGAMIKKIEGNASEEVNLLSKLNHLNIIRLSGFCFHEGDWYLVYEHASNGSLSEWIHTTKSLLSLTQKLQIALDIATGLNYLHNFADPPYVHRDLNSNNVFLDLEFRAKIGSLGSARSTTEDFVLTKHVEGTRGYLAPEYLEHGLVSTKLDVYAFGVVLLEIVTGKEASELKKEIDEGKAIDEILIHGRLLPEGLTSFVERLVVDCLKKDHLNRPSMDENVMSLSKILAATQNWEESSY
# Experimental: as §3
# Sequence of PpLYR3 (A0A251NBL6 entry or part of it): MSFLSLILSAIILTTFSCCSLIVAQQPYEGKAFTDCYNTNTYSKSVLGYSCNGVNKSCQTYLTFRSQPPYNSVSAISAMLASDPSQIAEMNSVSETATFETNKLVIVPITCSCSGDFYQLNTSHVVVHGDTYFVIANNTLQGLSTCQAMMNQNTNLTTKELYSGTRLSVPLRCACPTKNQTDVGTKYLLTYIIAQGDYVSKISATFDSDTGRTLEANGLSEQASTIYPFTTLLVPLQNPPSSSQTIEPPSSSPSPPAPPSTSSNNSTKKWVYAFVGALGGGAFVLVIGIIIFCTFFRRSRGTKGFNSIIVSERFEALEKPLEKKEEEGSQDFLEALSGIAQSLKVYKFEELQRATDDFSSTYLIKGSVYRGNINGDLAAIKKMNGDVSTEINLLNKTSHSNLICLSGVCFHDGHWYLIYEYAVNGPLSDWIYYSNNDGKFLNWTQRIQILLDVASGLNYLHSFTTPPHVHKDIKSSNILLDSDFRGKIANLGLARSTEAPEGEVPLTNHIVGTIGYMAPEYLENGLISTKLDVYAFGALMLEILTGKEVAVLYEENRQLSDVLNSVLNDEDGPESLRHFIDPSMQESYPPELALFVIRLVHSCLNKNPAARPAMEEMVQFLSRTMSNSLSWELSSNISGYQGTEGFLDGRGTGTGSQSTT
# Sequence of GmLYR3-1 (A5YJW2 entry or part of it): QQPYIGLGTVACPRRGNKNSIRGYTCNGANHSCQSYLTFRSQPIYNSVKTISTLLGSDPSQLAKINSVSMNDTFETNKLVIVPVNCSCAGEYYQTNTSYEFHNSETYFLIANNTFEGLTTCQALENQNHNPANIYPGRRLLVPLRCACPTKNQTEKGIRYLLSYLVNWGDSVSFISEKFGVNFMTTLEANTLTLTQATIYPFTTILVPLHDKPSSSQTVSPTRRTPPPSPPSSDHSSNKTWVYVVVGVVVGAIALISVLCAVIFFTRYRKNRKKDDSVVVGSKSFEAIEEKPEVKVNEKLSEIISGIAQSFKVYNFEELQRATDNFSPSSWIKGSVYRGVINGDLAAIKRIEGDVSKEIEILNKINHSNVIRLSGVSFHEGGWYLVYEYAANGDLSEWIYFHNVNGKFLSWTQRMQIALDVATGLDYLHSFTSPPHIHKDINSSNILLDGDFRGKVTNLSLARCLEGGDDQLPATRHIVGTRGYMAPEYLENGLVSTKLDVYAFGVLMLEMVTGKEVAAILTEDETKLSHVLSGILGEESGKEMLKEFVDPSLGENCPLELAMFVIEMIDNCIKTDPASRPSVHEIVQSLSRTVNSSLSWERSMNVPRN
# Sequence of PvLYR3 (V7CFC1 entry or part of it): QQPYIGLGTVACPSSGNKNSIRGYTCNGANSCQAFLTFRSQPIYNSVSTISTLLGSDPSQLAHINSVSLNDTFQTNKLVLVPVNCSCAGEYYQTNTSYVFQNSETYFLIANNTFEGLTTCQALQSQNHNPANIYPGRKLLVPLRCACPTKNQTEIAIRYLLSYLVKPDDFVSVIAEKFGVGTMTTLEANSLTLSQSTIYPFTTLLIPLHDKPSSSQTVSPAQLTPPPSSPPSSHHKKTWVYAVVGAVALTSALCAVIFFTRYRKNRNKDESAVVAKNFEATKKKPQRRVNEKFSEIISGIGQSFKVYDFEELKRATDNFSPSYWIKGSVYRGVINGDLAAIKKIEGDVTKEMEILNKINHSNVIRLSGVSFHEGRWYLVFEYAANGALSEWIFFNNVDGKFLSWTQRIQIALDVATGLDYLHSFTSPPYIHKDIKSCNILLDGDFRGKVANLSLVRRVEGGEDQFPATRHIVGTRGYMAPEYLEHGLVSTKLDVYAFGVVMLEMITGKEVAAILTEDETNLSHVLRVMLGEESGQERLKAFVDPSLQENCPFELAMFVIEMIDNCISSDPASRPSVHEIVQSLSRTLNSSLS
# Sequence of PsLYR3 (A0A9D5BD18 entry or part of it): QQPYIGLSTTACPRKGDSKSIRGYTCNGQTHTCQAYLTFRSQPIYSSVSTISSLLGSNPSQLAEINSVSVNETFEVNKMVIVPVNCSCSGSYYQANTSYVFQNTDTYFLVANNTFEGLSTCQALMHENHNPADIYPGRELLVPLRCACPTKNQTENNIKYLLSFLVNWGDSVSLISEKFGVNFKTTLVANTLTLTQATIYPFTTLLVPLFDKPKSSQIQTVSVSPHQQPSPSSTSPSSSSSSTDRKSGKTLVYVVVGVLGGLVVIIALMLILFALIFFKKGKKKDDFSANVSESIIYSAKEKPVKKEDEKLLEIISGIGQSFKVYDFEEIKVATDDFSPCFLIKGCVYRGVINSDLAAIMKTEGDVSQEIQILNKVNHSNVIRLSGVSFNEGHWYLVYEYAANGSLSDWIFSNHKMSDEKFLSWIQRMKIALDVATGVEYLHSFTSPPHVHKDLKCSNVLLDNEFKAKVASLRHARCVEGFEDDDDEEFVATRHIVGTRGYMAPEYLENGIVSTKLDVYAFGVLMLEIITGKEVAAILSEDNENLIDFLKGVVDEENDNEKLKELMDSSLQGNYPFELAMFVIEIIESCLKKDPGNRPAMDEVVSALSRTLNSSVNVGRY
# Sequence of GmLYR3-11 (I1LHL9 entry or part of it): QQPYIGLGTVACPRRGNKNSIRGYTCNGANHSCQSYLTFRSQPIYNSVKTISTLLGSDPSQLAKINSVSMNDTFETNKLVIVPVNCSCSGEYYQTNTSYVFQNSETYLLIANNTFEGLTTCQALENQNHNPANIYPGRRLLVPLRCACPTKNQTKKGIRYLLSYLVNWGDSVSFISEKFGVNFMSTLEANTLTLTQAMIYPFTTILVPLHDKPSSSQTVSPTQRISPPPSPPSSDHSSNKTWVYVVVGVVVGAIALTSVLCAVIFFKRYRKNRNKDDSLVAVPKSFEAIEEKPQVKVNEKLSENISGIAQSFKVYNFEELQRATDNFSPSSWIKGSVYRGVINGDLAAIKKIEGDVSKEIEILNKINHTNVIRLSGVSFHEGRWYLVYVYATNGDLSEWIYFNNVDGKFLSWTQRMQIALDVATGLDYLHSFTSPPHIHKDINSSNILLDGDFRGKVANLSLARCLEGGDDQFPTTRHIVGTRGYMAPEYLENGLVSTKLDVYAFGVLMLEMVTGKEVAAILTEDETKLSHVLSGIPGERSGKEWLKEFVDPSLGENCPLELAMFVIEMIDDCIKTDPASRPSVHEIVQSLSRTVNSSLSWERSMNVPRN
# Sequence of LjLYS12 (D3KTZ9 entry or part of it): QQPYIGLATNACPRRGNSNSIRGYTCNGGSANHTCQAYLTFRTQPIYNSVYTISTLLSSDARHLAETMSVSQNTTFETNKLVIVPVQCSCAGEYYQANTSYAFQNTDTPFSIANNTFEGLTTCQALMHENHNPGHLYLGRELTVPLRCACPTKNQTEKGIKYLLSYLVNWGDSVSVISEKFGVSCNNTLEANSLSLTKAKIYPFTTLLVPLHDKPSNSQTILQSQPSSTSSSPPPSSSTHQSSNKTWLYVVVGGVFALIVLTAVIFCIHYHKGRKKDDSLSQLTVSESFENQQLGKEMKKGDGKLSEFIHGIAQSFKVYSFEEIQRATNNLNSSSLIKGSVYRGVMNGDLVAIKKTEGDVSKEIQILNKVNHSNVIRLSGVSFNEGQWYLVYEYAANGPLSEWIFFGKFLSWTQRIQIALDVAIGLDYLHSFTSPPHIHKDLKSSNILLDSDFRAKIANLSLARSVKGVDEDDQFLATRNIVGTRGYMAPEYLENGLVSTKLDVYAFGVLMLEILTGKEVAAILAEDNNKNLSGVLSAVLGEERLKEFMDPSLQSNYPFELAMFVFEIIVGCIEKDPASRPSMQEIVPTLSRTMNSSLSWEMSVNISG
compound,measurement,setting,value
"CCCCCC/C=C\CCCCC/C=C/C(=O)N[C@H]1[C@H](O[C@H]2[C@H](O)[C@@H](NC(C)=O)[C@H](O[C@H]3[C@H](O)[C@@H](NC(C)=O)[C@H](O[C@H]4[C@H](O)[C@@H](NC(C)=O)C(O)O[C@@H]4COS(=O)(=O)O)O[C@@H]3CO)O[C@@H]2CO)O[C@H](CO)[C@@H](O)[C@@H]1O (some centres unmarked) [LCO-IV (^35S, C16:2Δ2, 9)]",binding activity of membrane fractions (interaction with radioligand),PsLYR3,interact
same,binding activity of membrane fractions (interaction with radioligand),GmLYR3-1,interact
same,binding activity of membrane fractions (interaction with radioligand),GmLYR3-11,interact
same,binding activity of membrane fractions (interaction with radioligand),LjLYS12,interact
same,binding activity of membrane fractions (interaction with radioligand),PvLYR3,interact
same,binding activity of membrane fractions (interaction with radioligand),LjNFR1,no interaction
same,binding activity of membrane fractions (interaction with radioligand),LjNFR5,no interaction
same,binding activity of membrane fractions (interaction with radioligand),PpLYR3; PpLYR3,interacts
same,Kd,"PpLYR3; PpLYR3, saturation",15 nM
same,binding activity of membrane fractions (interaction with radioligand),SILYR3,very low
same,binding activity of membrane fractions (interaction with radioligand),AtLysM-RLK4,no interaction
